biological target: T1, human-type tau 0N4R isoform (recombinant tau) (Homo sapiens, UniProt P10636); assay: quantity of sarcosyl insoluble tau by electrophoresis after 168 hours incubation; format: biochemical; settings: incubation for 168 hours; 0.1-100 μM
T1 construct: Fractions including full-length recombinant tau were mixed together; made in house; host or cells: E. coli BL21(DE3)
Protocol: (§1) First of all, a plasmid expressing human-type tau 0N4R isoform (383 amino acid) was introduced into E. coli BL21(DE3) strain to purify a recombinant tau. The purification was carried out by modifying the method of Taniguchi et al. (see Taniguchi et al., 2008, JBC, 280, 7614). A soluble fraction was prepared based on E. coli in which tau expression had been induced with isopropyl-β-thiogalactopyranoside, and then fractionation was carried out with a phosphocellulose column (e.g., P11 column produced by Whatman). The fraction eluted at an NaCl concentration of 0.1 to 0.3 M was recovered to perform precipitation and concentration using ammonium sulfate. […] The yield and concentration of the tau thus obtained were analyzed by Coomassie Brilliant Blue (CBB) staining after the product was subjected to electrophoresis using 10% polyacrylamide gel.
(§2) The dried and purified recombinant tau sample was dissolved in purified water at a concentration of 0.9 mg/ml. […] Next, their fluorescence value (under excitation light at 360 nm and fluorescent light at 465 nm) was measured with a fluorescent plate reader (infinit F200 produced by TECAN). Thereafter, heparin was added so that the concentration would be 60 μg/ml and then incubation was carried out at 37° C. in a moisture retention box to measure a variation in fluorescence value with time. […]

T1 sequence (P10636 1-383 isoform P10636-6): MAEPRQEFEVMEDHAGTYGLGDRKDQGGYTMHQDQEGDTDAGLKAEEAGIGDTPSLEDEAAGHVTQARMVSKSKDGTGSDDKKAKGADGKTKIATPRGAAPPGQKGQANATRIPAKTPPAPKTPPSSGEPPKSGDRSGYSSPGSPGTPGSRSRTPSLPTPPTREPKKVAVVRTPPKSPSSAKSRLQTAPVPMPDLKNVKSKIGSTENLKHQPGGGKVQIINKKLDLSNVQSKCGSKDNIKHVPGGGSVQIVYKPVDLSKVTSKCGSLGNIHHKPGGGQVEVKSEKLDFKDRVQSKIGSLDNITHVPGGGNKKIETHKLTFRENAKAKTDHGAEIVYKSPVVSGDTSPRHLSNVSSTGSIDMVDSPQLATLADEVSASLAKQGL

Row | SMILES | inhibition of tau polymerization (sarcosyl insoluble tau), concentration dependence
1 | CC(C)NCC(O)c1ccc(O)c(O)c1 (stereo not shown) [isoproterenol] | inhibited the tau polymerization depending on the concentration

biological target: T1, human-type tau 0N4R isoform (recombinant tau); assay: tau aggregation inhibition experiment, thioflavin T fluorescence (heparin-induced); format: biochemical; settings: 1 μM compound, compared to 1 μM isoproterenol under the same incubation condition
Protocol: First of all, a plasmid expressing human-type tau 0N4R isoform (383 amino acid) was introduced into E. coli BL21(DE3) strain to purify a recombinant tau. The purification was carried out by modifying the method of Taniguchi et al. (see Taniguchi et al., 2008, JBC, 280, 7614). A soluble fraction was prepared based on E. coli in which tau expression had been induced with isopropyl-β-thiogalactopyranoside, and then fractionation was carried out with a phosphocellulose column (e.g., P11 column produced by Whatman). The fraction eluted at an NaCl concentration of 0.1 to 0.3 M was recovered to perform precipitation and concentration using ammonium sulfate. The precipitate thus obtained was dissolved in a buffer containing 0.5 M of NaCl and 2% of 2-mercaptoethanol and then heated to 100° C. for five minutes. Then, the reactant was subjected to a centrifugation at 15,000×g for 15 minutes. The supernatant thus obtained was recovered and then subjected to precipitation and concentration with ammonium sulfate. The precipitate thus obtained was dissolved in a solution containing 20% of acetonitrile and 0.1% of formic acid so as to be purified using reversed phase HPLC (with a Cosmosil protein-R column produced by Nacalai Tesque). Fractions including full-length recombinant tau were mixed together and then the mixture thus obtained was dried with a freeze dryer to obtain a dried and purified recombinant tau sample. The yield and concentration of the tau thus obtained were analyzed by Coomassie Brilliant Blue (CBB) staining after the product was subjected to electrophoresis using 10% polyacrylamide gel.
The dried and purified recombinant tau sample was dissolved in purified water at a concentration of 0.9 mg/ml. […] Next, their fluorescence value (under excitation light at 360 nm and fluorescent light at 465 nm) was measured with a fluorescent plate reader (infinit F200 produced by TECAN). Thereafter, heparin was added so that the concentration would be 60 μg/ml and then incubation was carried out at 37° C. in a moisture retention box to measure a variation in fluorescence value with time. The incubation was carried out for 168 hours, the fluorescence value was measured, and then the reacted solution was recovered to prepare a sarcosyl insoluble fraction. The sarcosyl insoluble fraction was made to have a final concentration of 1% by adding an aqueous solution of 10% (one-tenth quantity of) sodium N-lauroylsarcosinate to the reacted solution recovered. The solution was subjected to incubation at 4° C. for 30 minutes and then subjected to a centrifugation at 100,000×g for 20 minutes to separate the supernatant and the precipitate from each other. With the supernatant fraction and the precipitate regarded as a soluble tau fraction and a sarcosyl insoluble fraction, respectively, the yield of tau was analyzed by electrophoresis using 10% polyacrylamide gel. Also, part of the reacted solution was fractionated by sucrose density-gradient centrifugation using the method of Maeda et al. (see Maeda et al., 2007, Biochemistry, 46, 3856). After the centrifugation, the reactant was fractioned into 1 to 6 according to density and the tau yield was analyzed by 10% polyacrylamide gel electrophoresis and Western blotting.
During screening, the concentration of the compound was supposed to be 1 μM and compared to the effect achieved by 1 μM of isoproterenol under the same incubation condition.

Row | SMILES | tau polymerization inhibitory activity (thioflavin T activity)
2 | Oc1ccc(C(O)CN2CCOCC2)cc1O (stereo not shown) [1-(3,4-dihydroxyphenyl)-2-morpholinoethanol] | somewhat higher tau polymerization inhibitory activity than isoproterenol and catechol
3 | O=Cc1cccc(O)c1O [2,3-dihydroxybenzaldehyde] | also exhibited as high tau polymerization inhibitory activity
4 | COc1ccc(CCN)cc1OC [2-(3,4-dimethoxy)ethylamine] | nor 2-(3,4-dimethoxy)ethylamine (indicated by 3,4-DMPT and represented by the following Chemical Formula (10)) exhibited any tau polymerization inhibitory activity
5 | Cn1ccnc1C(O)CN (stereo not shown) [2-amino-1-(1-methyl-1H-imidazol-2-yl)ethanol] | none of these compounds exhibited the tau polymerization inhibitory activity
6 | NCC(O)c1ccc(Cl)c(Cl)c1 (stereo not shown) [2-amino-1-(3,4-dichlorophenyl)ethanol] | No tau polymerization inhibitory activities
7 | NCC(O)c1ccco1 (stereo not shown) [2-amino-1-(furan-2-yl)ethanol] | none of these compounds exhibited the tau polymerization inhibitory activity
8 | NCC(O)c1cccnc1 (stereo not shown) [2-amino-1-(pyridine-3-yl)ethanol] | none of these compounds exhibited the tau polymerization inhibitory activity
9 | NCC(O)c1ccccc1 (stereo not shown) [2-amino-1-phenylethanol] | No tau polymerization inhibitory activities
10 | CC(=O)c1ccc(O)c(O)c1 [3,4-dihydroxyacetophenone] | as high tau polymerization inhibitory activity as isoproterenol and catechol
11 | O=Cc1ccc(O)c(O)c1 [3,4-dihydroxybenzaldehyde] | exhibited no tau polymerization inhibitory activity
12 | NCc1ccc(O)c(O)c1 [3,4-dihydroxybenzylamine] | as high tau polymerization inhibitory activity as isoproterenol and catechol
13 | Nc1cccc(O)c1O [3-aminocatechol] | inhibited the tau polymerization as strongly as 4-aminocatechol did
14 | COc1cccc(O)c1O [3-methoxycatechol] | also exhibited as high tau polymerization inhibitory activity
15 | NCCCC(=O)Nc1ccc(O)c(O)c1 [4-(4-aminobutanoylamino) catechol] | decreased significantly to almost the same level as isoproterenol's
16 | CC(C)CCN(CCC(C)C)c1ccc(O)c(O)c1 [4-(diisopentylamino) catechol] | decreased significantly to almost the same level as isoproterenol's
17 | CC(C)CCNc1ccc(O)c(O)c1 [4-(isopentylamino) catechol] | intense tau polymerization inhibitory activity did not change
18 | O=C(Nc1ccc(O)c(O)c1)N1CCOCC1 [4-(morpholinocarbonylamino) catechol] | intense tau polymerization inhibitory activity slightly decreased
19 | O=C(CCl)c1ccc(O)c(O)c1 [4-chloroacetylcatechol] | somewhat higher tau polymerization inhibitory activity than isoproterenol and catechol
20 | Oc1ccc(Cl)cc1O [4-chlorocatechol] | as high tau polymerization inhibitory activity as isoproterenol and catechol
21 | COc1ccc(O)c(O)c1 [4-methoxycatechol] | did not affect 1,2,4-benzenetriol's intense tau polymerization inhibitory activity
22 | CC(C)(C)c1ccc(O)c(O)c1 [4-tert-butylcatechol] | as high tau polymerization inhibitory activity as isoproterenol and catechol
23 | COc1ccc(CCN)cc1OC [homoveratylamine] | Neither homoveratylamine (indicated by HV and represented by the following Chemical Formula (9)) nor 2-(3,4-dimethoxy)ethylamine (indicated by 3,4-DMPT and represented by the following Chemical Formula (10)) exhibited any tau polymerization inhibitory activity

biological target: T1, human-type tau 0N4R isoform (recombinant tau); assay: sucrose density-gradient centrifugation fractionation of polymerized tau, electrophoresis and Western blotting; format: biochemical; settings: 10 μM
Protocol: as §1, §2

Row | SMILES | quantity of the tau recovered in Fraction 3 (oligomer tau) | quantity of the tau recovered in Fractions 4 and 5 (fibrosed tau)
24 | CC(C)NCC(O)c1ccc(O)c(O)c1 (stereo not shown) [isoproterenol] | also seen to decrease | seen to decrease significantly
